Experiments:
Asian Soybean Rust = experiment: Field trial in Brazil: soybean crop yield under Asian Soybean Rust, fungicide with or without adjuvant; assay type: in vivo; details: where added, 150 ml/ha
Procedure: Field trials were conducted in Brazil. Two standard biocide compositions from the market were applied to soybean crops: OPERA® (BASF) contains 5% w/w epoxiconazole and 13.3% w/w pyraclostrobin, the former is a preventive and curative fungicide, the latter a protectant, curative, and translaminar fungicide. FOLICUR® (Bayer CropScience) contains tebuconazole, a fungicide with protective, curative, and eradicant properties. The two compositions were applied at full recommended rate and at a 50% level. These experiments are compared to similar treatment of the plants adding in both cases adjuvant mixtures at a concentration of 150 ml/ha.

[1] = system: barnyard grass and green foxtail; experiment: Uptake of radio-labelled nicosulfuron with adjuvant, compared with crop oil concentrate; assay type: in vivo; details: adjuvant rate giving the same nicosulfuron uptake as COC (uptake with COC set to 100%); nicosulfuron (ACCENT WDG 75) 0.031% w/v
Procedure: A separate study was undertaken to compare the performance of the invented composition compared with an industry standard, more particularly a crop oil concentrate (COC), on the uptake of nicosulfuron on barnyard grass and green foxtail. Nicosulfuron as ACCENT® WDG 75 was used at 0.031% w/v (46.7 g active ingredient/150 l/ha). Radio-labelled nicosulfuron (50 mCi/mmol) was added to freshly prepared treatment solution 0.5 h prior to use. The ^14C nicosulfuron comprised 7% by mass. Spray solutions with nicosulfuron alone i.e. without adjuvant, were formulated in 50% acetone. All additives were used at the same concentration. The uptake using COC (Example C3) was set to 100%, therefore the data in Table 2, below, reflects the reduction in concentration of the other adjuvants in order to achieve the same level of uptake for COC. In other words, one can reduce the amount of adjuvant by 75-80% in order to achieve the same effects compared to the use of COC.

[2] = FOLICUR (tebuconazole) at full recommended rate
[3] = FOLICUR at 50% of the full recommended rate
[4] = OPERA (5% epoxiconazole, 13.3% pyraclostrobin) at full recommended rate
[5] = OPERA at 50% of the full recommended rate

Substance	Soybean Crop Yield influenced by Asian Soybean Rust - relative to control (=100), FOLICUR (Asian Soybean Rust; [2])	Soybean Crop Yield influenced by Asian Soybean Rust - relative to control (=100), FOLICUR (Asian Soybean Rust; [3])	Soybean Crop Yield influenced by Asian Soybean Rust - relative to control (=100), OPERA (Asian Soybean Rust; [4])	Soybean Crop Yield influenced by Asian Soybean Rust - relative to control (=100), OPERA (Asian Soybean Rust; [5])	Adjuvant rate [1]
2-Octyldodecyl polyglucoside (DP 1.7) [Example 1]	141	161	161	137	0.24 % v/v
Cetearyl polyglucoside (DP 1.5) [C1, reference compound]	127	149	150	129	0.19 % v/v
Isostearyl polyglucoside (DP 1.5) [Example 2]	135	156	153	137	0.22 % v/v
